What was measured:
[1] = molar heat capacity at constant pressure; settings: 101.33 kPa, Liquid, Vacuum adiabatic calorimetry
[2] = molar heat capacity at constant pressure; xn = mol fraction of the nth substance listed; settings: 101 kPa, Liquid, Vacuum adiabatic calorimetry

CC(O)CO (configuration not stated) [1,2-propanediol]
[1]
Settings	molar heat capacity at constant pressure [J/K/mol]
303.15 K	192.8
313.15 K	197
323.15 K	201.3
333.15 K	206
343.15 K	210.6
353.15 K	215.3

CC(O)CO (configuration not stated) [1,2-propanediol] + O
molar heat capacity at constant pressure [J/K/mol], [2]
Settings	303.15 K	313.15 K	323.15 K	333.15 K	343.15 K	353.15 K
x1 = 0.2	101.9	103	104.3	105.8	107.2	108.8
x1 = 0.4	127	129.4	132.1	134.9	137.7	140.7
x1 = 0.5	138.9	141.9	145.1	148.7	152.1	155.6
x1 = 0.6	150.3	153.9	157.7	161.8	165.8	169.9
x1 = 0.8	172.1	176.4	180.9	185.8	190.6	195.5

OCCCOCCCO [4-oxa-1,7-heptanediol]
[1]
Settings	molar heat capacity at constant pressure [J/K/mol]
303.15 K	329
313.15 K	335.3
323.15 K	341.5
333.15 K	348.8
343.15 K	355.8
353.15 K	363.8

OCCCOCCCO [4-oxa-1,7-heptanediol] + O
molar heat capacity at constant pressure [J/K/mol], [2]
Settings	303.15 K	313.15 K	323.15 K	333.15 K	343.15 K	353.15 K
x1 = 0.2	129.1	130.8	132.7	135	137.1	139.5
x1 = 0.4	181.8	184.9	188.2	191.9	195.5	199.6
x1 = 0.5	207.2	210.9	214.7	219.3	223.5	228.3
x1 = 0.6	231.9	236.2	240.7	245.8	250.8	256.3
x1 = 0.8	279.7	285	290.4	296.6	302.7	309.4

Reference: the NIST ThermoML archive (doi:10.1016/j.tca.2009.01.008)
